Earlier results, collected in patent US20260209864A1, “METHOD FOR DETERMINING AND IMPROVING THE POTENTIAL EFFICACY OF ANTICANCER TREATMENT” (ASSISTANCE PUBLIQUE - HOPITAUX DE PARIS, priority 2022, published 2026).

What was measured:
[1] = tested on: hematological malignancies; details: early administration during allo-HSCT
[2] = after lung transplantation

SMILES: CC[C@H]1OC(=O)[C@H](C)[C@@H](O[C@H]2C[C@@](C)(OC)[C@@H](O)[C@H](C)O2)[C@H](C)[C@@H](O[C@@H]2O[C@H](C)C[C@H](N(C)C)[C@H]2O)[C@](C)(O)C[C@@H](C)CN(C)[C@H](C)[C@@H](O)[C@]1(C)O [azithromycin]
- risk of hematological malignancies relapses [1]: unexpectedly increased risk
- prevention of BOS [2]: prevents BOS
